Test results as given in ChEMBL document CHEMBL1201862, “PubChem BioAssay data set” (2004).
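The compound was tested at five concentrations on cells cultured in 96-well plates, with a 48-hour exposure period. Here, GI50 denotes the concentration required for 50% inhibition of growth.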 Calls of active or inactive are those of the source. Cut-off read from the data, not from the text of the source: active = GI50 up to about 1.1 µM and inactive = higher.

What was measured:
Assay in all cases: growth of human tumour cells (NCI), 48 h
CAKI-1 = tested on: CAKI-1
DU-145 = tested on: DU-145
HCT-15 = tested on: HCT-15
Hs-578T = tested on: Hs-578T
K562 = tested on: K562
M14 = tested on: M14
MDA-MB-231 = tested on: MDA-MB-231
MDA-MB-435 = tested on: MDA-MB-435
MDA-N = tested on: MDA-N
Malme-3M = tested on: Malme-3M
NCI-H460 = tested on: NCI-H460
OVCAR-5 = tested on: OVCAR-5
RPMI-8226 = tested on: RPMI-8226
RXF 393 = tested on: RXF 393
SF-268 = tested on: SF-268
SK-MEL-28 = tested on: SK-MEL-28
SN12C = tested on: SN12C
SR = tested on: SR
SW-620 = tested on: SW-620
U-251 = tested on: U-251

SMILES | GI50 (CAKI-1) | GI50 (DU-145) | GI50 (HCT-15) [µM] | GI50 (Hs-578T) | GI50 (K562) | GI50 (M14) | GI50 (MDA-MB-231) | GI50 (MDA-MB-435) | GI50 (MDA-N) | GI50 (Malme-3M) | GI50 (NCI-H460) | GI50 (OVCAR-5) | GI50 (RPMI-8226) | GI50 (RXF 393) | GI50 (SF-268) | GI50 (SK-MEL-28) | GI50 (SN12C) | GI50 (SR) | GI50 (SW-620) | GI50 (U-251)
CC(=O)c1ccccc1NS(=O)(=O)c1ccc2nc(C)n(NS(=O)(=O)c3ccccc3C(C)=O)c(=O)c2c1 | > 100 µM (inactive) | > 100 µM (inactive) | > 100 | > 100 µM (inactive) | > 100 µM (inactive) | > 100 µM (inactive) | > 100 µM (inactive) | > 100 µM (inactive) | > 100 µM (inactive) | > 100 µM (inactive) | > 100 µM (inactive) | > 100 µM (inactive) | > 100 µM (inactive) | > 100 µM (inactive) | > 100 µM (inactive) | > 100 µM (inactive) | > 100 µM (inactive) | > 100 µM (inactive) | > 100 µM (inactive) | > 100 µM (inactive)
O=C(O)c1[nH]c(=O)[nH]c(=O)c1CN1CCCCC1 | > 100 µM (inactive) | > 100 µM (inactive) | > 100 | > 100 µM (inactive) | > 100 µM (inactive) | > 100 µM (inactive) | > 100 µM (inactive) | > 100 µM (inactive) | > 100 µM (inactive) | > 100 µM (inactive) | > 100 µM (inactive) | > 100 µM (inactive) | > 100 µM (inactive) | > 100 µM (inactive) | > 100 µM (inactive) | > 100 µM (inactive) | > 100 µM (inactive) | > 100 µM (inactive) | > 100 µM (inactive) | > 100 µM (inactive)
O=C(O)C(F)(F)C(F)(F)C(F)(F)C(F)(F)C(=O)O | > 100 µM (inactive) | > 100 µM (inactive) | > 100 | > 100 µM (inactive) | > 100 µM (inactive) | > 100 µM (inactive) | > 100 µM (inactive) | > 100 µM (inactive) | > 100 µM (inactive) | > 100 µM (inactive) | > 100 µM (inactive) | > 100 µM (inactive) | > 100 µM (inactive) | > 100 µM (inactive) | > 100 µM (inactive) | > 100 µM (inactive) | > 100 µM (inactive) | > 100 µM (inactive) | > 100 µM (inactive) | > 100 µM (inactive)
CC(=O)c1c(SCCN2CCCCCC2)n(-c2ccccc2)c(=S)n(-c2ccccc2)c1=O | 3.85 µM (inactive) | 2.17 µM (inactive) | 5.61 | 17.7 µM (inactive) | 2.61 µM (inactive) | 2.15 µM (inactive) | 14.4 µM (inactive) | 12.9 µM (inactive) | 7.29 µM (inactive) | 1.51 µM (inactive) | 24.7 µM (inactive) | 24.4 µM (inactive) | 0.384 µM (active) | 1.73 µM (inactive) | 11 µM (inactive) | 11.2 µM (inactive) | 5.92 µM (inactive) | 1.09 µM (active) | 2.04 µM (inactive) | 15.9 µM (inactive)
CC(/C=C/C=C/C=C/C=C/C=C/C(=O)C1=C(O)C(CCC(=O)O)N(C)C1=O)=C\C(C)C(OC1CC(O)C(O)C(C)O1)C(C)C (stereo not given) | 3.5 µM (inactive) | 3.42 µM (inactive) | 3.68 | 5.85 µM (inactive) | 3.71 µM (inactive) | 3.26 µM (inactive) | 2.9 µM (inactive) | 3 µM (inactive) | 2.97 µM (inactive) | 2.23 µM (inactive) | 2.96 µM (inactive) | 2.27 µM (inactive) | 3.13 µM (inactive) | 3.07 µM (inactive) | 2.84 µM (inactive) | 2.68 µM (inactive) | 3.33 µM (inactive) | 3.85 µM (inactive) | 4.13 µM (inactive) | 3.6 µM (inactive)
